Legend:
[1] = cited from earlier work
[2] = system: HN5 HNC cell line; assay: Erlotinib sensitivity assay (CellTitre 96 cell viability); details: Homo sapiens, HN5, 72 h, read-out: Erlotinib sensitivity (EC50)
[3] = system: SCC-9 HNC cell line; assay: as above; details: Homo sapiens, SCC-9, 72 h, read-out: Erlotinib sensitivity (EC50)
[4] = system: FaDu HNC cell line; assay: as above; details: Homo sapiens, 72 h, read-out: Erlotinib sensitivity (EC50)

For `C#Cc1cccc(Nc2ncnc3cc(OCCOC)c(OCCOC)cc23)c1` [erlotinib, N-(3-ethynylphenyl)-6,7-bis(2-methoxyethoxy)quinazolin-4-amine], the “Concentration in serum of patients treated with erlotinib” value [1] is listed as 3000 to 10000 nM, the EC50 [2] is listed as 640 nM and the EC50 [3] is listed as 2150 nM. For the same compound, the EC50 [4] was 8260 nM.

— patent US9051551B2, “Methods and compositions for increasing sensitivity to tyrosine kinase inhibitors” (The University of Western Australia, priority 2009, dated 2015)
